Laboratory results taken from ChEMBL document CHEMBL5360657, “Discovery of the TLR7/8 Antagonist MHV370 for Treatment of Systemic Autoimmune Diseases” (ACS Med Chem Lett, 2023).

What was measured:
[1] = AUC in mouse at 3 mg/kg, iv; format: ADME, organism-based; design: dose 3 mg/kg, route iv; details: in vivo
[2] = Volume of distribution at steady state in mouse at 3 mg/kg, iv; format: ADME, organism-based; details: in vivo, read-out: Vdss
[3] = Efflux ratio of permeability basolateral to apical over apical to basolateral side in human Caco-2 cells; format: ADME, cell-based
Toll-like receptor 9 = target: T1, Toll-like receptor 9 (Mus musculus, UniProt Q9EQU3); assay: Antagonist activity at TLR9 in mouse Splenocyte assessed as reduction in IFN-alpha level measured after 20 hrs by Spectramax M5 method; format: cell-based
T1 sequence (Q9EQU3 whole entry): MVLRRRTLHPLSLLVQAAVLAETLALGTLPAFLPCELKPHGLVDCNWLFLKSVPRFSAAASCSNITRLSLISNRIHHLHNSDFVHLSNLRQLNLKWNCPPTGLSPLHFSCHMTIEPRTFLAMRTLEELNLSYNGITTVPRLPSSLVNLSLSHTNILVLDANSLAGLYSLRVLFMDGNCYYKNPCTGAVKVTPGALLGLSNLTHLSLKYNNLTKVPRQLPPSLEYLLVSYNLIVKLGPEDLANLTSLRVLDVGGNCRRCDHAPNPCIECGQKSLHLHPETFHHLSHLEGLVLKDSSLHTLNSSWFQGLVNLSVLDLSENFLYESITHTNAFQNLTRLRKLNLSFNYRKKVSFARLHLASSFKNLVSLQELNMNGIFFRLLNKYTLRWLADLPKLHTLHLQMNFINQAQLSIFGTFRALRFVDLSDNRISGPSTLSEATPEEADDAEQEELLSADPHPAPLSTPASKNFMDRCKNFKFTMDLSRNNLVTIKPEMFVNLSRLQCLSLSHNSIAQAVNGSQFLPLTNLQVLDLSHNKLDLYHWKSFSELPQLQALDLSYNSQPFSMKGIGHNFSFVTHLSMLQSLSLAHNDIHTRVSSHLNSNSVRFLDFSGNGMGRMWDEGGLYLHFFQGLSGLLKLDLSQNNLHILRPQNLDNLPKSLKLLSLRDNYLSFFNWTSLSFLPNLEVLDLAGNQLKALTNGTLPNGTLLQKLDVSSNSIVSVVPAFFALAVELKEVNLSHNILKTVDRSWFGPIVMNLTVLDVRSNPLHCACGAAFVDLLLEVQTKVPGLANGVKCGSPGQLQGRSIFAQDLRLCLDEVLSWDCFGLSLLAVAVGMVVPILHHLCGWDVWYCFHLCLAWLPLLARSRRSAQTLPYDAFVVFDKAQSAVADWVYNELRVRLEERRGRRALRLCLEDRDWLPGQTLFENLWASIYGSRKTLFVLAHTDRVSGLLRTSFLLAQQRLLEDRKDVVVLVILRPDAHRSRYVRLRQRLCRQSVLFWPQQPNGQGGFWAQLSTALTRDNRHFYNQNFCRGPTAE

Toll-like receptor 7 = target: T2, Toll-like receptor 7 (Mus musculus, UniProt P58681); assay: Antagonist activity at TLR7 in mouse Whole blood cell assessed as reduction in IFN-alpha level measured after 20 hrs by AlphaLISA method; format: tissue-based
T2 sequence (P58681 whole entry): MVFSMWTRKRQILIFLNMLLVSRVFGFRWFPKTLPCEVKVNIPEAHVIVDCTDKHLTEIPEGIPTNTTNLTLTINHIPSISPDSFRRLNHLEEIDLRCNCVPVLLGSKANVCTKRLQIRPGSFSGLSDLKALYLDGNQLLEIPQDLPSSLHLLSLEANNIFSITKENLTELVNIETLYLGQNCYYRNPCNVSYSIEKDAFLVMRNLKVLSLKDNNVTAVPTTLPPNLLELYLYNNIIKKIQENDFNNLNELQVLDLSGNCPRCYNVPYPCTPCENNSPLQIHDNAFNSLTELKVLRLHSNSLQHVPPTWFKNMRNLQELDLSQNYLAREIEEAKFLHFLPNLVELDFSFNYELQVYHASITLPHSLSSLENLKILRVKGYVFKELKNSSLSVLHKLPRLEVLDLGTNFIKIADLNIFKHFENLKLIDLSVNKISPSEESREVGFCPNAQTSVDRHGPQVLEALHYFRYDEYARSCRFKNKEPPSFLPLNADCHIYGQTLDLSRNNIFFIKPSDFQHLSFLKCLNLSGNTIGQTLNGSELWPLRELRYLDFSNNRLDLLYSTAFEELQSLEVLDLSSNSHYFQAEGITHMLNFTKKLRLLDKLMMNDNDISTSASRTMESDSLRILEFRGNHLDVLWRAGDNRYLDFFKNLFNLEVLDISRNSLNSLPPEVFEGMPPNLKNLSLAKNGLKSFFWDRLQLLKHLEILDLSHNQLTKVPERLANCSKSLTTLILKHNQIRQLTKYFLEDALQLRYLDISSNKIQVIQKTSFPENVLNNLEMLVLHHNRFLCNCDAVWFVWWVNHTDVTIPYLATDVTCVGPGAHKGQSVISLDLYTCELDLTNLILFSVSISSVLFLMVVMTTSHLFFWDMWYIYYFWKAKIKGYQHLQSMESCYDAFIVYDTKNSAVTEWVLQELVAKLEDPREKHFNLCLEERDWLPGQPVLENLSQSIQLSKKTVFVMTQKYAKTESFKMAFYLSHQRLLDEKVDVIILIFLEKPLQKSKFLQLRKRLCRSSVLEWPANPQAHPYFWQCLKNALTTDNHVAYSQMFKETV

| Structure (SMILES) | AUC [1] | Vd [2] | efflux ratio [3] | IC50 (Toll-like receptor 9) | IC50 (Toll-like receptor 7) |
| --- | --- | --- | --- | --- | --- |
| Cc1cc(N2CCc3c(c(C)nn3CC34CCC(N)(CC3)CC4)C2)c2cnn(C)c2n1 | 5.005 µM·h | 4.1 L/kg | 7.5 | – | – |
| Cc1cc(N2CCc3c(c(C)nn3CC34CCC(NC(=O)[C@@H]5COCCN5)(CC3)CC4)C2)c2cnn(C)c2n1 [MHV-370] | – | – | – | > 1 µM | 0.051 µM |
